Test system: Candida albicans
Test: bioassay for antifungal activity against Candida albicans
Type: cell-based
Conditions: for Activity: Table 5, products of S. noursei nysC mutants, graded against nystatin of wild type (normal)
Method: Preliminary analysis of the compounds produced by the S. noursei ERD44 and ERD48 was carried out. It was shown that a heptaenic compound produced by the ERD44 mutant has high antifungal activity against Candida albicans, an organism used in tests for antifungal activity. At this point it is not possible to accurately assay the activity of this compound (tentatively named S44), because it is not yet properly purified, and its exact concentration is difficult to estimate. […] This probably reflects the different states of modifications of the macrolactone ring by i.e. glycosylation at C19, hydroxylation at C10, or oxidation of the methyl group at C16. This could have been expected, since reduction of the macrolactone ring size most probably leads to the lower affinity of the modifying enzymes towards the new substrate.
Antifungal activity of the S48 mixture was tested, and found to constitute approx. 10% of nystatin activity. It seems probable that only one of the compounds in the S48 mixture produced by ERD48, which is fully decorated by the ring-modifying enzymes, is responsible for the antifungal activity detected. Thus, relative antifungal activity of this compound is impossible to assess prior to its purification Some of the […] antibiotics are known to have antibacterial, as well as antifungal activity (Ciftci, et al., J. Antibiot, v. 37: 876–884, 1984). It is thus possible that hexaenic compounds produced by the ERD48 mutant can be used for production of antibacterial agents The changes in the NysC protein leading to production of new polyene compounds in ERD44 and ERD48 mutants, along with the predicted structures of their macrolactone rings are presented in FIG. 5.
The recombinant S.noursei strain selected after this procedure was designated NPR1.1 The S. noursei NPR1.1 recombinant strain was shown by Southern blot analysis to contain the desired deletion in the DH8-coding sequence of nysC. […] The relative mobility of these compounds differed from nystatin, and no UV spectra characteristic for nystatin could be detected in the extracts. […] However, the NPR1 mutant can be potentially useful for further manipulations with the nystatin PKS.

CC1/C=C/C=C/C=C/C=C/C=C/C=C/C=C/C(O)CC2OC(O)(CC(O)CCCC(O)CC(O)CC(O)CC(=O)OC(C)[C@H](C)C1O)CC(O)C2C (stereo partly shown) [S44]
Activity: high
antifungal activity against Candida albicans (result in words, unpurified compound or culture extracts): high
antifungal activity compared to nystatin (rough estimates based on UV absorbance, compound not properly purified, concentration difficult to estimate): 4–5 times

C[C@@H]1[C@H](O)[C@@H](C)/C=C/C=C/CC/C=C/C=C/C=C/C=C/C(O[C@H]2O[C@H](C)[C@@H](O)[C@H](N)[C@@H]2O)CC2O[C@](O)(CC(O)C(O)CCC(O)CC(O)CC(O)CC(=O)O[C@H]1C)CC(O)C2C(=O)O (stereo partly shown) [nystatin]
Activity: normal

— patent publication US7141660B2, “Genes encoding a nystatin polyketide synthase and their manipulation and utility” (Sinvent AS, priority 2000, dated 2006)
